These are literature values, as cited in patent publication US20090202668A1, “Use of a polyphenol in the treatment of the metabolic syndrome and endothelial dysfunction or other vascular sequellae” (priority 2006, published 2009).

This series addresses T1, CETP (Homo sapiens, UniProt P11597).
T1 sequence (P11597 18-493): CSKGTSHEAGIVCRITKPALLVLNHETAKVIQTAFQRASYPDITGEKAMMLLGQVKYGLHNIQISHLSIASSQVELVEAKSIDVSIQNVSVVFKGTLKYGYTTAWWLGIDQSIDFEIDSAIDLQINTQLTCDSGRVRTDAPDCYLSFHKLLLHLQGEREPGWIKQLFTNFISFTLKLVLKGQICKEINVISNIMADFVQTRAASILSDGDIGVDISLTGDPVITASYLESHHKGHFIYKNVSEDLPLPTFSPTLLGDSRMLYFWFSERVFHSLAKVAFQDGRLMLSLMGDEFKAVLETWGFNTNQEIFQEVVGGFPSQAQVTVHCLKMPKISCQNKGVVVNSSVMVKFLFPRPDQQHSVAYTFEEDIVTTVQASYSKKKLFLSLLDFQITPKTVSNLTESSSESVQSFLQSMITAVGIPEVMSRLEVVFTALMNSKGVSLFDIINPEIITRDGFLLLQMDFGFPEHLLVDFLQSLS

Regarding `CCOC(=O)N1c2ccc(C(F)(F)F)cc2[C@@H](N(Cc2cc(C(F)(F)F)cc(C(F)(F)F)c2)C(=O)OC)C[C@H]1CC` [Torcetrapib], the side effects entry is on record as “major side effects such as death”. Where the note is “CETP-inhibitor”, the “results of HDL-increasing treatment” value was “poor results”.
